Assay results from patent US6008227A, “Process for blocking 5-HT and dopamine uptake with biologically active tropane derivatives” (Wake Forest University, priority 1993, dated 1999).
“Also recorded” adds a separate entry of the source. Like-named read-outs stand apart in the source and are kept apart here.

Tests used:
5-HT transporter [1] = target: T1, 5-HT transporter (Rattus norvegicus, UniProt P31652); assay: Displacement of [^3 H]paroxetine binding to 5-HT transporter sites in rat frontal cortex; parameters: from tissue; host or cells: rat frontal cortex; details: for selectivity towards the 5-HT transporter in terms of binding and inhibition, in words: binding and uptake inhibition; for displacement of [^3 H]paroxetine binding, in words: FIG. 2 / text; for selectivity between dopamine and 5-HT transporters, in words: binding assays; for times more potent than cocaine at 5-HT transporter sites: vs cocaine, [^3 H]paroxetine binding
dopamine transporter [2] = target: T2, dopamine transporter (Rattus norvegicus, UniProt P23977); assay: Displacement of [^125 I]RTI-55 binding to dopamine transporters in rat striatal membranes; details: for Ki: [^125 I]RTI-55 10-20 pM, rat striatal membranes; for binding ratio: 5-HT K1 / DA K1, higher numbers demonstrate relatively greater dopamine transporter potency; for displacement of [^125 I]RTI-55 binding, in words: FIG. 1
T2 construct: was used to label dopamine transporters in rat striatal membranes; from tissue; host or cells: rat striatal membranes

dopamine transporter [3] = target: T2, dopamine transporter; assay: Inhibition of [3H]dopamine uptake into dissociated striatal cells from fetal and adult rat brain; assay type: cell-based; details: for uptake ratio: 5-HT uptake IC50 / DA uptake IC50; for inhibition of [3H]dopamine uptake into striatal cells, in words: FIG. 3; for dopamine: 5-HT ratio: regardless of the assay used (binding or uptake)
5-HT transporter [4] = target: T1, 5-HT transporter; assay: Inhibition of [^3 H]5-HT uptake in dissociated frontal cortex cells from fetal and adult rat brain; assay type: cell-based; parameters: from tissue; host or cells: rat frontal cortex; details: for IC50: frontal cortex cells, fetal and adult rat brain; for blocking [^3 H]5-HT uptake in cortical cells, in words: FIG. 4
[5] = vs cocaine, [^125 I]RTI-55 binding
[6] = read-out: [^3 H] paroxetine K1, [^3 H]paroxetine, rat frontal cortex

T1 sequence (P31652 whole entry): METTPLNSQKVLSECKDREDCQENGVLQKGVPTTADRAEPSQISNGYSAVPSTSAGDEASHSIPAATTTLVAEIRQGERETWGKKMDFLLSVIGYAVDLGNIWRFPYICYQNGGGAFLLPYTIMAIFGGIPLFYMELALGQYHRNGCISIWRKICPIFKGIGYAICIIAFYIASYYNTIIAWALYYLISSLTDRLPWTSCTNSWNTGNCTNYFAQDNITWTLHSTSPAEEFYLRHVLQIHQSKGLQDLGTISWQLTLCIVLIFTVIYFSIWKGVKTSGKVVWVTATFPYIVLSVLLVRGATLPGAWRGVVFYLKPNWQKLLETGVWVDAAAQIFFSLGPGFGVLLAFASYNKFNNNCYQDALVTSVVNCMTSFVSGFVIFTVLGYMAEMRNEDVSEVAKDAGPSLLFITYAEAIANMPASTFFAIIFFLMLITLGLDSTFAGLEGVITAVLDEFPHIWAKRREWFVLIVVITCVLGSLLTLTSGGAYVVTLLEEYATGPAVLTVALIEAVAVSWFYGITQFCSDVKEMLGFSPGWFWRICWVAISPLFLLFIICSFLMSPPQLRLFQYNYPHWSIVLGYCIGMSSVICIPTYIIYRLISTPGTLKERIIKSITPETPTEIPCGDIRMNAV
T2 sequence (P23977 whole entry): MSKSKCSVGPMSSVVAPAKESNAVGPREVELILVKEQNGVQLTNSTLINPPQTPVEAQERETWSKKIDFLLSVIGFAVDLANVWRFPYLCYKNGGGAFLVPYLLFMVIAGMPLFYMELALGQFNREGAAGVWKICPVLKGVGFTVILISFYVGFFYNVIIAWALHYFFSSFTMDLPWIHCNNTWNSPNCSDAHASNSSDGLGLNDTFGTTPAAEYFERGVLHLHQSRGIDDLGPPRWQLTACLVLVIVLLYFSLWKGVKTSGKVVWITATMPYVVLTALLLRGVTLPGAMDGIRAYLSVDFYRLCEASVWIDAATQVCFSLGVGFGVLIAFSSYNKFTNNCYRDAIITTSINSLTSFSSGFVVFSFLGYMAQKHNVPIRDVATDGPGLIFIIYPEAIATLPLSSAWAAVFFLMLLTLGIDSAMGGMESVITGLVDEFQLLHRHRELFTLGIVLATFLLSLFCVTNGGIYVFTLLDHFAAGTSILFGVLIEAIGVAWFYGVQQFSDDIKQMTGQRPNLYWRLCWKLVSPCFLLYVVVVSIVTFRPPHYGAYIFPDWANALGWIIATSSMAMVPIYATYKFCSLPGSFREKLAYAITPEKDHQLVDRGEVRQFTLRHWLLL

SMILES: CC(=O)[C@@H]1[C@@H](c2ccc(F)cc2)C[C@@H]2CC[C@H]1N2C (relative stereo) [WF-1]
- Ki (5-HT transporter [1]): > 10000 nM
- Ki (dopamine transporter [2]): 929 ± 160 nM

SMILES: CC(=O)[C@@H]1[C@@H](c2ccccc2)C[C@@H]2CC[C@H]1N2C (relative stereo) [WF-2]
- Ki (5-HT transporter [1]): > 10000 nM
- Ki (dopamine transporter [2]): 7270 ± 1210 nM

SMILES: CC(=O)[C@@H]1[C@@H](c2ccc(C)cc2)C[C@@H]2CC[C@H]1N2C (relative stereo) [WF-3]
- Ki (5-HT transporter [1]): > 10000 nM
- Ki (dopamine transporter [2]): 775 ± 57 nM

SMILES: CC(=O)[C@H]1[C@@H](c2ccc(C)cc2)C[C@@H]2CC[C@H]1N2C (relative stereo) [WF-4]
- IC50 (dopamine transporter [3]): 13.8 ± 2.6 nM
- uptake ratio (dopamine transporter [3]): 24
- binding ratio (dopamine transporter [2]): 12.4
- Ki (dopamine transporter [2]): 9.8 ± 0.5 nM
- IC50 (5-HT transporter [4]): 330 ± 75 nM

SMILES: COC(=O)[C@@H]1[C@@H](c2ccccc2)C[C@@H]2CC[C@H]1N2C (relative stereo) [WF-6]
- Ki (dopamine transporter [2]): 2060 ± 545 nM

SMILES: CC(=O)[C@H]1[C@@H](c2ccc(F)cc2)C[C@@H]2CC[C@H]1N2C (relative stereo) [WF-7]
- binding ratio (dopamine transporter [2]): 12.1

SMILES: CC(=O)[C@H]1[C@@H](c2cccc3ccccc23)C[C@@H]2CC[C@H]1N2C (relative stereo) [WF-8]
- IC50 (dopamine transporter [3]): 20.7 ± 7.7 nM
- IC50 (5-HT transporter [4]): 4.55 nM

SMILES: CCc1ccc([C@H]2C[C@@H]3CC[C@H]([C@H]2C(C)=O)N3C)cc1 (relative stereo) [WF-9]
- selectivity towards the 5-HT transporter in terms of binding and inhibition, in words (5-HT transporter [1]): considerable selectivity towards the 5-HT transporter
- IC50 (dopamine transporter [3]): 1160 ± 266 nM
- uptake ratio (dopamine transporter [3]): 0.0082
- binding ratio (dopamine transporter [2]): 0.51
- Ki (dopamine transporter [2]): 152 ± 24 nM
- IC50 (5-HT transporter [4]): 9.5 ± 5.4 nM

SMILES: COC(=O)[C@H]1[C@@H](c2ccccc2)C[C@@H]2CC[C@H]1N2C (relative stereo) [WF-10]
- Ki (dopamine transporter [2]): 98.8 ± 12.2 nM

SMILES: CCC(=O)[C@H]1[C@@H](c2ccc(C)cc2)C[C@@H]2CC[C@H]1N2C (relative stereo) [WF-11]
- displacement of [^3 H]paroxetine binding, in words (5-HT transporter [1]): approximately equipotent with cocaine in displacing [^3 H]paroxetine binding
- selectivity between dopamine and 5-HT transporters, in words (5-HT transporter [1]): relatively more selective for dopamine transporters
- times more potent than cocaine at 5-HT transporter sites (5-HT transporter [1]): twice
- IC50 (dopamine transporter [3]): 2.21 ± 1.7 nM
- uptake ratio (dopamine transporter [3]): 140
- times more potent in inhibiting dopamine uptake than 5-HT uptake (dopamine transporter [3]; uptake assays): 140 times
- binding ratio (dopamine transporter [2]): 15.9
- Ki (dopamine transporter [2]): 8.2 ± 1.6 nM
- times more potent than cocaine in binding to dopamine transporters (dopamine transporter [2]; [5]): 20 times
- IC50 (5-HT transporter [4]): 310 ± 104 nM

SMILES: CCC(=O)[C@@H]1[C@@H](c2ccc(C)cc2)C[C@@H]2CC[C@H]1N2C (relative stereo) [WF-13]
- Ki (5-HT transporter [1]): > 10000 nM
- Ki (dopamine transporter [2]): 764 ± 84 nM

SMILES: CCC(=O)[C@@H]1[C@@H](CC)C[C@@H]2CC[C@H]1N2C (relative stereo) [WF-14]
- Ki (5-HT transporter [1]): > 10000 nM
- Ki (dopamine transporter [2]): > 50000 nM

SMILES: CC(=O)[C@@H]1[C@@H](c2cccc3ccccc23)C[C@@H]2CC[C@H]1N2C (relative stereo) [WF-15]
- Ki (dopamine transporter [2]): 97 ± 21 nM

SMILES: CCc1ccc([C@H]2C[C@@H]3CC[C@H]([C@@H]2C(C)=O)N3C)cc1 (relative stereo) [WF-16]
- Ki (5-HT transporter [1]): > 10000 nM
- Ki (dopamine transporter [2]): 2290 ± 360 nM

SMILES: Cc1ccc([C@H]2C[C@@H]3CC[C@H]([C@@H]2C(=O)C(C)C)N3C)cc1 (relative stereo) [WF-17]
- Ki (5-HT transporter [1]): > 10000 nM
- Ki (dopamine transporter [2]): 2130 ± 266 nM

SMILES: CCC(=O)[C@H]1[C@@H](CC)C[C@@H]2CC[C@H]1N2C (relative stereo) [WF-18]
- Ki (dopamine transporter [2]): > 50000 nM

SMILES: CCC(=O)[C@H]1[C@@H](C2CCCCC2)C[C@@H]2CC[C@H]1N2C (relative stereo) [WF-19]
- Ki (5-HT transporter [1]): > 10000 nM

SMILES: CCC(=O)[C@@H]1[C@@H](c2ccccc2C)C[C@@H]2CC[C@H]1N2C (relative stereo) [WF-21]
- Ki (5-HT transporter [1]; [6]): > 10000 nM

SMILES: CCC(=O)[C@H]1[C@@H](c2ccccc2C)C[C@@H]2CC[C@H]1N2C (relative stereo) [WF-22]
- Ki (5-HT transporter [1]; [6]): 1060 ± 395 nM
- binding ratio (dopamine transporter [2]): 1.30
- Ki (dopamine transporter [2]; read-out:): 814 ± 220 nM

SMILES: CCC(=O)[C@H]1[C@@H](c2ccc3ccccc3c2)C[C@@H]2CC[C@H]1N2C (relative stereo) [WF-23]
- Ki (5-HT transporter [1]): 0.63 ± 0.2 nM
- displacement of [^3 H]paroxetine binding, in words (5-HT transporter [1]): the most potent compounds in displacing [^3 H]paroxetine binding
- selectivity between dopamine and 5-HT transporters, in words (5-HT transporter [1]): like cocaine, with little selectivity between the two transporters
- times more potent than cocaine at 5-HT transporter sites (5-HT transporter [1]): 480 times
- IC50 (dopamine transporter [3]): 0.027 ± 0.016 nM
- uptake ratio (dopamine transporter [3]): 10.0
- inhibition of [3H]dopamine uptake into striatal cells, in words (dopamine transporter [3]): the most potent analog in inhibiting dopamine uptake
- dopamine: 5-HT ratio (dopamine transporter [3]): 3-4
- binding ratio (dopamine transporter [2]): 3.1
- Ki (dopamine transporter [2]): 0.2 ± 0.04 nM
- times more potent than cocaine at both transporters (dopamine transporter [2]; vs cocaine, dopamine and 5-HT transporter binding): 500-800 times
- blocking [^3 H]5-HT uptake in cortical cells, in words (5-HT transporter [4]): significantly more potent than cocaine in blocking [^3 H]5-HT uptake
- IC50 (5-HT transporter [4]): 0.27 nM

SMILES: CCC(=O)[C@@H]1[C@@H](c2ccc3ccccc3c2)C[C@@H]2CC[C@H]1N2C (relative stereo) [WF-24]
- IC50 (dopamine transporter [3]): 5.9 ± 2.4 nM
- binding ratio (dopamine transporter [2]): 6.53
- Ki (dopamine transporter [2]): 2.51 ± 0.82 nM

SMILES: CCC(=O)[C@H]1[C@@H](c2ccc(C(C)(C)C)cc2)C[C@@H]2CC[C@H]1N2C (relative stereo) [WF-26]
- binding ratio (dopamine transporter [2]): 0.84

SMILES: CCC(=O)[C@H]1[C@@H](c2ccc(C)c3ccccc23)C[C@@H]2CC[C@H]1N2C (relative stereo) [WF-27]
- selectivity towards the 5-HT transporter in terms of binding and inhibition, in words (5-HT transporter [1]): considerable selectivity towards the 5-HT transporter
- IC50 (dopamine transporter [3]): 260 ± 98 nM
- binding ratio (dopamine transporter [2]): 0.358
- Ki (dopamine transporter [2]): 25.1 ± 0.5 nM
- IC50 (5-HT transporter [4]): 14.6 nM

SMILES: CCC(=O)[C@H]1[C@@H](c2cccc3ccccc23)C[C@@H]2CC[C@H]1N2C (relative stereo) [WF-30]
- IC50 (dopamine transporter [3]): 3.66 ± 1.91 nM
- uptake ratio (dopamine transporter [3]): 1.46
- binding ratio (dopamine transporter [2]): 3.91
- Ki (dopamine transporter [2]): 5.34 ± 1.27 nM
- IC50 (5-HT transporter [4]): 5.43 nM

SMILES: CCC(=O)[C@H]1[C@@H](c2ccc(C(C)C)cc2)C[C@@H]2CC[C@H]1N2C (relative stereo) [WF-31]
- displacement of [^3 H]paroxetine binding, in words (5-HT transporter [1]): significantly more potent in displacing [^3 H]paroxetine than cocaine
- selectivity towards the 5-HT transporter in terms of binding and inhibition, in words (5-HT transporter [1]): considerable selectivity towards the 5-HT transporter
- Ki (5-HT transporter [1]; [6]): 54.5 ± 8.9 nM
- times more potent than cocaine at 5-HT transporter sites (5-HT transporter [1]): 8 times
- inhibition of [3H]dopamine uptake into striatal cells, in words (dopamine transporter [3]): considerably less potent in blocking [3H]dopamine uptake
- IC50 (dopamine transporter [3]; read-out: DA uptake IC50, striatal cells, fetal and adult rat brain): 5840 ± 2600 nM
- binding ratio (dopamine transporter [2]): 0.089
- displacement of [^125 I]RTI-55 binding, in words (dopamine transporter [2]): less potent in displacing [^125 I]RTI-55 than cocaine
- Ki (dopamine transporter [2]; read-out:): 615 ± 98 nM
- times less potent than cocaine at dopamine transporters (dopamine transporter [2]; [5]): 2.5 times
- blocking [^3 H]5-HT uptake in cortical cells, in words (5-HT transporter [4]): significantly more potent than cocaine in blocking [^3 H]5-HT uptake
- IC50 (5-HT transporter [4]): 46.9 nM
- times more potent in inhibiting 5-HT uptake than dopamine uptake (5-HT transporter [4]; uptake assays): 120 times

SMILES: CC(=O)[C@H]1[C@@H](c2ccc3ccccc3c2)C[C@@H]2CC[C@H]1N2C (relative stereo) [WF-32]
- binding ratio (dopamine transporter [2]): 4.27
- Ki (dopamine transporter [2]): 0.248 ± 0.15 nM

SMILES: CCC(=O)[C@H]1[C@@H](c2ccc3cc(OC)ccc3c2)C[C@@H]2CC[C@H]1N2C (relative stereo) [WF-33]
- displacement of [^3 H]paroxetine binding, in words (5-HT transporter [1]): the most potent compounds in displacing [^3 H]paroxetine binding
- times less potent than WF-23 in displacing [^3 H]paroxetine binding (5-HT transporter [1]; vs WF-23): 4 times
- times more potent than cocaine at 5-HT transporter sites (5-HT transporter [1]): 140 times
- displacement of [^125 I]RTI-55 binding, in words (dopamine transporter [2]): the most potent of these compounds; also recorded: equipotent in displacing [^125 I]RTI-55 binding

SMILES: CCC(=O)[C@@H]1[C@@H](c2ccc3cc(OC)ccc3c2)C[C@@H]2CC[C@H]1N2C (relative stereo) [WF-34]
- Ki (5-HT transporter [1]): 206 ± 81 nM
- binding ratio (dopamine transporter [2]): 3.76
- Ki (dopamine transporter [2]): 54.7 ± 15 nM

SMILES: CCC(=O)[C@H]1[C@@H](c2ccc(-c3ccccc3)cc2)C[C@@H]2CC[C@H]1N2C (relative stereo) [WF-35]
- binding ratio (dopamine transporter [2]): 1.88

SMILES: CCC(=O)C1C(c2ccc3ccccc3c2)CC2CCC1N2C (single isomer, unassigned) [WF-23(1)]
- selectivity between dopamine and 5-HT transporters, in words (5-HT transporter [1]): the same as the racemic mixture of WF-23
- binding ratio (dopamine transporter [2]): 4.2
- Ki (dopamine transporter [2]): 113 ± 26 nM

SMILES: CCC(=O)C1C(c2ccc3ccccc3c2)CC2CCC1N2C (single isomer, unassigned) [WF-23(2)]
- Ki (5-HT transporter [1]): 0.127 ± 0.05 nM
- displacement of [^3 H]paroxetine binding, in words (5-HT transporter [1]): also potent vs. [^3 H]paroxetine binding
- selectivity between dopamine and 5-HT transporters, in words (5-HT transporter [1]): the same as the racemic mixture of WF-23
- dopamine: 5-HT ratio (dopamine transporter [3]): 3-4
- IC50 (dopamine transporter [2]): ~0.03 nM
- binding ratio (dopamine transporter [2]): 3.96
- Ki (dopamine transporter [2]): 0.032 ± 0.007 nM
